# Source: ChEMBL document CHEMBL5625268, “Identification of novel benzothiazole derivatives as inhibitors of NEDDylation pathway to inhibit the progression of gastric cancer” (Bioorg Med Chem Lett, 2024)
# Calls of active or inactive are those of the source. The calls are words filed in the database; no cut-off is given here.
# What was measured:
# [1] = biological target: T1, NEDD8 activating enzyme (Homo sapiens) (UniProt Q8TBC4+Q13564); test: Inhibition of NAE in human MGC-803 cells assessed as reduction in UBC12-NEDD8 complex incubated for 24 hrs by Western blot analysis; format: cell-based; details: dose 1-5 µM
# [2] = biological target: T1, NEDD8 activating enzyme (Homo sapiens); test: Inhibition of NAE in human MGC-803 cells assessed as reduction in NAE1-NEDD8 complex incubated for 24 hrs by Western blot analysis; format: cell-based; details: dose 1-5 µM
# [3] = biological target: T1, NEDD8 activating enzyme (Homo sapiens); test: Inhibition of NAE in human MGC-803 cells assessed as reduction in cullin1 neddylation incubated for 24 hrs by Western blot analysis; format: cell-based; details: dose 1-5 µM
# [4] = biological target: T1, NEDD8 activating enzyme (Homo sapiens); test: Inhibition of NAE in human MGC-803 cells assessed as reduction in cullin3 neddylation incubated for 24 hrs by Western blot analysis; format: cell-based; details: dose 1-5 µM
# [5] = biological target: T1, NEDD8 activating enzyme (Homo sapiens); test: Inhibition of NAE in human MGC-803 cells assessed as reduction in cullin5 neddylation incubated for 24 hrs by Western blot analysis; format: cell-based; details: dose 1-5 µM
# MGC-803 [6] = test: Induction of cell cycle arrest in human MGC-803 cells assessed as accumulation of cells at G1 phase at 1 uM incubated for 24 hrs by flow cytometry analysis (reference value: 64.82%); format: functional
# MGC-803 [7] = test: Induction of cell cycle arrest in human MGC-803 cells assessed as accumulation of cells at G1 phase at 2 uM incubated for 24 hrs by flow cytometry analysis (reference value: 64.82%); format: functional
# MGC-803 [8] = test: Induction of cell cycle arrest in human MGC-803 cells assessed as accumulation of cells at G1 phase at 4 uM incubated for 24 hrs by flow cytometry analysis (reference value: 64.82%); format: functional
# MGC-803 [9] = test: Induction of cell cycle arrest in human MGC-803 cells assessed as accumulation of cells in S phase at 1 uM incubated for 24 hrs by flow cytometry analysis (reference value: 21.93%); format: functional
# MGC-803 [10] = test: Induction of cell cycle arrest in human MGC-803 cells assessed as accumulation of cells in S phase at 2 uM incubated for 24 hrs by flow cytometry analysis (reference value: 21.93%); format: functional
# MGC-803 [11] = test: Induction of cell cycle arrest in human MGC-803 cells assessed as accumulation of cells in S phase at 4 uM incubated for 24 hrs by flow cytometry analysis (reference value: 21.93%); format: functional
# MGC-803 [12] = test: Induction of cell cycle arrest in human MGC-803 cells assessed as accumulation of cells in G2/M phase at 1 uM incubated for 24 hrs by flow cytometry analysis (reference value: 13.25%); format: functional
# MGC-803 [13] = test: Induction of cell cycle arrest in human MGC-803 cells assessed as accumulation of cells in G2/M phase at 2 uM incubated for 24 hrs by flow cytometry analysis (reference value: 13.25%); format: functional
# MGC-803 [14] = test: Induction of cell cycle arrest in human MGC-803 cells assessed as accumulation of cells in G2/M phase at 4 uM incubated for 24 hrs by flow cytometry analysis (reference value: 13.25%); format: functional
# MGC-803 [15] = test: Induction of apoptosis in human MGC-803 cells assessed as viable cells at 1 uM incubated for 48 hrs by Annexin V-FITC/PI double staining based flow cytometry analysis (reference value: 97.3 %); format: functional; details: read-out: Activity
# MGC-803 [16] = test: Induction of apoptosis in human MGC-803 cells assessed as viable cells at 2 uM incubated for 48 hrs by Annexin V-FITC/PI double staining based flow cytometry analysis (reference value: 97.3 %); format: functional; details: read-out: Activity
# MGC-803 [17] = test: Induction of apoptosis in human MGC-803 cells assessed as viable cells at 4 uM incubated for 48 hrs by Annexin V-FITC/PI double staining based flow cytometry analysis (reference value: 97.3 %); format: functional; details: read-out: Activity
# MGC-803 [18] = test: Induction of apoptosis in human MGC-803 cells assessed as early apoptosis cells at 1 uM incubated for 48 hrs by Annexin V-FITC/PI double staining based flow cytometry analysis (reference value: 0.39 %); format: functional
# MGC-803 [19] = test: Induction of apoptosis in human MGC-803 cells assessed as early apoptosis cells at 2 uM incubated for 48 hrs by Annexin V-FITC/PI double staining based flow cytometry analysis (reference value: 0.39 %); format: functional
# MGC-803 [20] = test: Induction of apoptosis in human MGC-803 cells assessed as early apoptosis cells at 4 uM incubated for 48 hrs by Annexin V-FITC/PI double staining based flow cytometry analysis (reference value: 0.39 %); format: functional
# MGC-803 [21] = test: Induction of apoptosis in human MGC-803 cells assessed as late apoptosis cells at 1 uM incubated for 48 hrs by Annexin V-FITC/PI double staining based flow cytometry analysis (reference value: 1.95 %); format: functional
# MGC-803 [22] = test: Induction of apoptosis in human MGC-803 cells assessed as late apoptosis cells at 2 uM incubated for 48 hrs by Annexin V-FITC/PI double staining based flow cytometry analysis (reference value: 1.95 %); format: functional
# MGC-803 [23] = test: Induction of apoptosis in human MGC-803 cells assessed as late apoptosis cells at 4 uM incubated for 48 hrs by Annexin V-FITC/PI double staining based flow cytometry analysis (reference value: 1.95 %); format: functional
# MGC-803 [24] = test: Induction of apoptosis in human MGC-803 cells assessed as necrotic cells at 1 uM incubated for 48 hrs by Annexin V-FITC/PI double staining based flow cytometry analysis (reference value: 0.37 %); format: functional
# MGC-803 [25] = test: Induction of apoptosis in human MGC-803 cells assessed as necrotic cells at 2 uM incubated for 48 hrs by Annexin V-FITC/PI double staining based flow cytometry analysis (reference value: 0.37 %); format: functional
# MGC-803 [26] = test: Induction of apoptosis in human MGC-803 cells assessed as necrotic cells at 4 uM incubated for 48 hrs by Annexin V-FITC/PI double staining based flow cytometry analysis (reference value: 0.37 %); format: functional
# MGC-803 [27] = test: Induction of ROS generation in human MGC-803 cells at 1 uM incubated for 24 hrs by DCFH-DA staining based flow cytometry analysis (reference value: 3.1%); format: functional
# MGC-803 [28] = test: Induction of ROS generation in human MGC-803 cells at 2 uM incubated for 24 hrs by DCFH-DA staining based flow cytometry analysis (reference value: 3.1%); format: functional
# MGC-803 [29] = test: Induction of ROS generation in human MGC-803 cells at 4 uM incubated for 24 hrs by DCFH-DA staining based flow cytometry analysis (reference value: 3.1%); format: functional
# MGC-803 [30] = test: Inhibition of cell migration in human MGC-803 cells incubated for 48 hrs by wound healing assay; format: functional, cell-based; details: dose 1-4 µM
# MGC-803 [31] = test: Inhibition of cell migration in human MGC-803 cells assessed as reduction in wound closure rate at 4 uM incubated for 48 hrs by wound healing assay (reference value: 49%); format: functional
# MGC-803 [32] = test: Inhibition of colony formation in human MGC-803 cells incubated for 48 hrs by phase-contrast microscopy; format: functional, cell-based; details: dose 1-4 µM
# A549 = test: Antiproliferative activity against human A549 cells by CCK8 assay; format: functional, cell-based
# MGC-803 [33] = test: Antiproliferative activity against human MGC-803 cells by CCK8 assay; format: functional, cell-based
# MCF7 = test: Antiproliferative activity against human MCF7 cells by CCK8 assay; format: functional, cell-based
# KYSE-30 = test: Antiproliferative activity against human KYSE-30 cells by CCK8 assay; format: functional, cell-based
# [34] = Cytotoxicity against HUVECs incubated for 72 hrs by CCK8 assay; format: toxicity, cell-based; details: human, HUVEC cells
# [35] = Selectivity index, ratio of IC50 for human A549 cells to IC50 for HUVECs
# [36] = Selectivity index, ratio of IC50 for human MGC-803 cells to IC50 for HUVECs
# [37] = Selectivity index, ratio of IC50 for human MCF7 cells to IC50 for HUVECs
# [38] = Selectivity index, ratio of IC50 for human KYSE-30 cells to IC50 for HUVECs
# [39] = biological target: T1, NEDD8 activating enzyme (Homo sapiens); test: Inhibition of NAE in human MGC-803 cells assessed as reduction in NAE1-NEDD8 complex formation at 5 uM incubated for 24 hrs by Western blot analysis relative to control; format: cell-based
structure (smiles),measurement,setting,value
CCc1ccc(C(=O)Nc2nc3ccc(NC(=O)C4CCN(Cc5ccccc5)CC4)cc3s2)cc1,inhibition,[1],Dose-Dependent Effect
same,inhibition,[2],Dose-Dependent Effect
same,inhibition,[3],Dose-Dependent Effect
same,inhibition,[4],Dose-Dependent Effect
same,inhibition,[5],inactive
same,Activity,MGC-803 [6],68.08%
same,Activity,MGC-803 [7],61.71%
same,Activity,MGC-803 [8],45.22%
same,Activity,MGC-803 [9],13.29%
same,Activity,MGC-803 [10],12.39%
same,Activity,MGC-803 [11],17.12%
same,Activity,MGC-803 [12],18.63%
same,Activity,MGC-803 [13],25.9%
same,Activity,MGC-803 [14],37.66%
same,viability at 1 µM,MGC-803 [15],86.5%
same,viability at 2 µM,MGC-803 [16],73.3%
same,viability at 4 µM,MGC-803 [17],57.6%
same,Activity,MGC-803 [18],3.15%
same,Activity,MGC-803 [19],7.92%
same,Activity,MGC-803 [20],8.54%
same,Activity,MGC-803 [21],10.1%
same,Activity,MGC-803 [22],18.5%
same,Activity,MGC-803 [23],33.8%
same,Activity,MGC-803 [24],0.18%
same,Activity,MGC-803 [25],0.23%
same,Activity,MGC-803 [26],0.11%
same,Activity,MGC-803 [27],6.8%
same,Activity,MGC-803 [28],13.1%
same,Activity,MGC-803 [29],26.4%
same,inhibition,MGC-803 [30],Dose-Dependent Effect
same,inhibition at 4 µM,MGC-803 [31],< 20%
same,inhibition,MGC-803 [32],Dose-Dependent Effect
same,IC50,A549,0.87 µM
same,IC50,MGC-803 [33],1.63 µM
same,IC50,MCF7,0.96 µM
same,IC50,KYSE-30,0.65 µM
same,IC50 at 72 h,[34],6.21 µM
same,Ratio IC50,[35],3.8
same,Ratio IC50,[36],3.8
same,Ratio IC50,[37],3.8
same,Ratio IC50,[38],3.8
same,inhibition,[39],100%
